According to PMC7673538 (PLoS Biology, 2020):

Tested on: EV-A71
Assay: microbe, parasite or virus in culture
Type: cell-based, enterovirus A71
Conditions: Enterovirus A, EVA71, HeLa R19, read-out: EC50 EV-A71

Row | Compound | EC50 [µM]
1 | COc1ccc(N(Cc2ccccc2)C(=O)c2ccco2)cc1 [Compound 19c, N-Benzyl-N-(4-methoxyphenyl)furan-2-carboxamide] | > 30

Tested on: CV-B3
Assay: microbe, parasite or virus in culture
Type: cell-based, coxsackievirus B3
Conditions: not given

Row | Compound | antiviral activity against CV-B3 (in words) | increase or decrease of antiviral activity against CV-B3
2 | COc1ccc(N(Cc2ccc(F)cc2)C(C)=O)cc1 [Compound 5a, N-(4-fluorobenzyl)-N-(4-methoxyphenyl)acetamide] | loss of antiviral activity | 
3 | COc1ccc(N(Cc2ccccc2)C(=O)c2ccco2)cc1 [Compound 19c, N-Benzyl-N-(4-methoxyphenyl)furan-2-carboxamide] |  | less than 3 fold

Same assay, conditions: Enterovirus B, CVB3, HeLa

Row | Compound | EC50 [µM]
4 | COc1ccc(N(Cc2ccccc2)C(=O)c2ccco2)cc1 [Compound 19c, N-Benzyl-N-(4-methoxyphenyl)furan-2-carboxamide] | 4.42 ± 0.36

Same assay, conditions: Enterovirus B, CVB3, HeLa R19

Row | Compound | EC50 [µM]
5 | COc1ccc(N(Cc2ccc(F)cc2)C(C)=O)cc1 [Compound 5a, N-(4-fluorobenzyl)-N-(4-methoxyphenyl)acetamide] | > 30

Same assay, conditions: Enterovirus B, CVB3, HeLa R19, read-out: CV-B3 EC50 Average

Row | Compound | EC50 [µM]
6 | COc1ccc(N(Cc2ccc(F)cc2)C(C)=O)cc1 [Compound 5a, N-(4-fluorobenzyl)-N-(4-methoxyphenyl)acetamide] | > 30
7 | COc1ccc(N(Cc2ccccc2)C(=O)c2ccco2)cc1 [Compound 19c, N-Benzyl-N-(4-methoxyphenyl)furan-2-carboxamide] | 4.07

Same assay, conditions: Enterovirus B, CVB3, HeLa R19, read-out: CV-B3 Exp 1 EC50

Row | Compound | EC50 [µM]
8 | COc1ccc(N(Cc2ccc(F)cc2)C(C)=O)cc1 [Compound 5a, N-(4-fluorobenzyl)-N-(4-methoxyphenyl)acetamide] | > 30
9 | COc1ccc(N(Cc2ccccc2)C(=O)c2ccco2)cc1 [Compound 19c, N-Benzyl-N-(4-methoxyphenyl)furan-2-carboxamide] | 4.32

Same assay, conditions: Enterovirus B, CVB3, HeLa R19, read-out: CV-B3 Exp2 EC50

Row | Compound | EC50 [µM]
10 | COc1ccc(N(Cc2ccc(F)cc2)C(C)=O)cc1 [Compound 5a, N-(4-fluorobenzyl)-N-(4-methoxyphenyl)acetamide] | > 30
11 | COc1ccc(N(Cc2ccccc2)C(=O)c2ccco2)cc1 [Compound 19c, N-Benzyl-N-(4-methoxyphenyl)furan-2-carboxamide] | 3.82

Same assay, conditions: Enterovirus B, CVB3, HeLa R19, read-out: EC50 HelaR19 Average

Row | Compound | EC50 [µM]
12 | COc1ccc(N(Cc2ccccc2)C(=O)c2ccco2)cc1 [Compound 19c, N-Benzyl-N-(4-methoxyphenyl)furan-2-carboxamide] | 4.41

Same assay, conditions: Enterovirus B, CVB3, HeLa R19, read-out: Exp 1 EC50 HelaR19

Row | Compound | EC50 [µM]
13 | COc1ccc(N(Cc2ccccc2)C(=O)c2ccco2)cc1 [Compound 19c, N-Benzyl-N-(4-methoxyphenyl)furan-2-carboxamide] | 4.06

Same assay, conditions: Enterovirus B, CVB3, HeLa R19, read-out: Exp 2 EC50 HelaR19

Row | Compound | EC50 [µM]
14 | COc1ccc(N(Cc2ccccc2)C(=O)c2ccco2)cc1 [Compound 19c, N-Benzyl-N-(4-methoxyphenyl)furan-2-carboxamide] | 4.77

Tested on: PV-1
Assay: microbe, parasite or virus in culture
Type: cell-based, poliovirus 1
Conditions: Enterovirus C, HeLa R19, read-out: EC50 PV-1

Row | Compound | EC50 [µM]
15 | COc1ccc(N(Cc2ccccc2)C(=O)c2ccco2)cc1 [Compound 19c, N-Benzyl-N-(4-methoxyphenyl)furan-2-carboxamide] | > 30

Tested on: CV-A24
Assay: microbe, parasite or virus in culture
Type: cell-based, coxsackievirus A24
Conditions: Enterovirus C, CVA24, HeLa R19, read-out: EC50 CV-A24

Row | Compound | EC50 [µM]
16 | COc1ccc(N(Cc2ccccc2)C(=O)c2ccco2)cc1 [Compound 19c, N-Benzyl-N-(4-methoxyphenyl)furan-2-carboxamide] | > 30

Tested on: EV-D68
Assay: microbe, parasite or virus in culture
Type: cell-based, enterovirus D68
Conditions: Enterovirus D, EVD68, HeLa R19, read-out: EC50 EV-D68

Row | Compound | EC50 [µM]
17 | COc1ccc(N(Cc2ccccc2)C(=O)c2ccco2)cc1 [Compound 19c, N-Benzyl-N-(4-methoxyphenyl)furan-2-carboxamide] | 8.94 ± 0.82

Same assay, conditions: Enterovirus D, EVD68, HeLa R19, read-out: EC50 Exp1

Row | Compound | EC50 [µM]
18 | COc1ccc(N(Cc2ccccc2)C(=O)c2ccco2)cc1 [Compound 19c, N-Benzyl-N-(4-methoxyphenyl)furan-2-carboxamide] | 8.12

Same assay, conditions: Enterovirus D, EVD68, HeLa R19, read-out: EC50 Exp2

Row | Compound | EC50 [µM]
19 | COc1ccc(N(Cc2ccccc2)C(=O)c2ccco2)cc1 [Compound 19c, N-Benzyl-N-(4-methoxyphenyl)furan-2-carboxamide] | 9.76

Tested on: HRV-A2
Assay: microbe, parasite or virus in culture
Type: cell-based, human rhinovirus
Conditions: Human rhinovirus sp., HRVA2, HeLa R19, read-out: EC50 HRV-A2

Row | Compound | EC50 [µM]
20 | COc1ccc(N(Cc2ccccc2)C(=O)c2ccco2)cc1 [Compound 19c, N-Benzyl-N-(4-methoxyphenyl)furan-2-carboxamide] | > 30

Tested on: HRV-B14
Assay: microbe, parasite or virus in culture
Type: cell-based, human rhinovirus
Conditions: Human rhinovirus sp., HRVB14, HeLa R19, read-out: EC50 HRV-B14

Row | Compound | EC50 [µM]
21 | COc1ccc(N(Cc2ccccc2)C(=O)c2ccco2)cc1 [Compound 19c, N-Benzyl-N-(4-methoxyphenyl)furan-2-carboxamide] | > 30

Tested on: CV-B3
Assay: microbe, parasite or virus in culture
Type: cell-based, coxsackievirus B3
Conditions: Enterovirus B, CVB3, HAP1, read-out: EC50 Hap1 Average

Row | Compound | EC50 [nM]
22 | COc1ccc(N(Cc2ccccc2)C(=O)c2ccco2)cc1 [Compound 19c, N-Benzyl-N-(4-methoxyphenyl)furan-2-carboxamide] | 2120

Same assay, conditions: Enterovirus B, CVB3, HAP1, read-out: Exp 1 EC50 Hap1

Row | Compound | EC50 [nM]
23 | COc1ccc(N(Cc2ccccc2)C(=O)c2ccco2)cc1 [Compound 19c, N-Benzyl-N-(4-methoxyphenyl)furan-2-carboxamide] | 2150

Same assay, conditions: Enterovirus B, CVB3, HAP1, read-out: Exp 2 EC50 Hap1

Row | Compound | EC50 [nM]
24 | COc1ccc(N(Cc2ccccc2)C(=O)c2ccco2)cc1 [Compound 19c, N-Benzyl-N-(4-methoxyphenyl)furan-2-carboxamide] | 2090

Tested on: CV-B3
Assay: microbe, parasite or virus in culture
Type: cell-based, coxsackievirus B3
Conditions: Enterovirus B, CVB3, BGM, read-out: EC50 BGM Average

Row | Compound | EC50 [µM]
25 | COc1ccc(N(Cc2ccccc2)C(=O)c2ccco2)cc1 [Compound 19c, N-Benzyl-N-(4-methoxyphenyl)furan-2-carboxamide] | 4.3

Same assay, conditions: Enterovirus B, CVB3, BGM, read-out: Exp 1 EC50 BGM

Row | Compound | EC50 [µM]
26 | COc1ccc(N(Cc2ccccc2)C(=O)c2ccco2)cc1 [Compound 19c, N-Benzyl-N-(4-methoxyphenyl)furan-2-carboxamide] | 3.95

Tested on: HeLa R19 cells
Assay: not given
Conditions: not given

Row | Compound | cytotoxicity (in words)
27 | COc1ccc(N(Cc2ccccc2)C(=O)c2ccco2)cc1 [Compound 19c, N-Benzyl-N-(4-methoxyphenyl)furan-2-carboxamide] | did not show any cytotoxicity

Tested on: not listed separately
Assay: in vitro
Conditions: human, CC50

Row | Compound | CC50 [µM]
28 | COc1ccc(N(Cc2ccc(F)cc2)C(C)=O)cc1 [Compound 5a, N-(4-fluorobenzyl)-N-(4-methoxyphenyl)acetamide] | > 30

Same assay, conditions: human, CC50 Average

Row | Compound | CC50 [µM]
29 | COc1ccc(N(Cc2ccc(F)cc2)C(C)=O)cc1 [Compound 5a, N-(4-fluorobenzyl)-N-(4-methoxyphenyl)acetamide] | > 30
30 | COc1ccc(N(Cc2ccccc2)C(=O)c2ccco2)cc1 [Compound 19c, N-Benzyl-N-(4-methoxyphenyl)furan-2-carboxamide] | > 30

Same assay, conditions: human, CC50 HelaR19 Average

Row | Compound | CC50 [µM]
31 | COc1ccc(N(Cc2ccccc2)C(=O)c2ccco2)cc1 [Compound 19c, N-Benzyl-N-(4-methoxyphenyl)furan-2-carboxamide] | > 100

Same assay, conditions: human, Exp 1 CC50

Row | Compound | CC50 [µM]
32 | COc1ccc(N(Cc2ccc(F)cc2)C(C)=O)cc1 [Compound 5a, N-(4-fluorobenzyl)-N-(4-methoxyphenyl)acetamide] | > 30
33 | COc1ccc(N(Cc2ccccc2)C(=O)c2ccco2)cc1 [Compound 19c, N-Benzyl-N-(4-methoxyphenyl)furan-2-carboxamide] | > 30

Same assay, conditions: human, Exp 1 CC50 HelaR19

Row | Compound | CC50 [µM]
34 | COc1ccc(N(Cc2ccccc2)C(=O)c2ccco2)cc1 [Compound 19c, N-Benzyl-N-(4-methoxyphenyl)furan-2-carboxamide] | > 100

Same assay, conditions: human, Exp2 CC50

Row | Compound | CC50 [µM]
35 | COc1ccc(N(Cc2ccc(F)cc2)C(C)=O)cc1 [Compound 5a, N-(4-fluorobenzyl)-N-(4-methoxyphenyl)acetamide] | > 30
36 | COc1ccc(N(Cc2ccccc2)C(=O)c2ccco2)cc1 [Compound 19c, N-Benzyl-N-(4-methoxyphenyl)furan-2-carboxamide] | > 30

Same assay, conditions: human, Exp 2 CC50 HelaR19

Row | Compound | CC50 [µM]
37 | COc1ccc(N(Cc2ccccc2)C(=O)c2ccco2)cc1 [Compound 19c, N-Benzyl-N-(4-methoxyphenyl)furan-2-carboxamide] | > 100

Tested on: not listed separately
Assay: in vitro
Conditions: human, CC50
Remark: another data set of the same source

Row | Compound | CC50 [µM]
38 | COc1ccc(N(Cc2ccccc2)C(=O)c2ccco2)cc1 [Compound 19c, N-Benzyl-N-(4-methoxyphenyl)furan-2-carboxamide] | > 100

Same assay, conditions: human, CC50 Hap1 Average

Row | Compound | CC50 [µM]
39 | COc1ccc(N(Cc2ccccc2)C(=O)c2ccco2)cc1 [Compound 19c, N-Benzyl-N-(4-methoxyphenyl)furan-2-carboxamide] | > 100

Same assay, conditions: human, Exp 1 CC50 Hap1

Row | Compound | CC50 [µM]
40 | COc1ccc(N(Cc2ccccc2)C(=O)c2ccco2)cc1 [Compound 19c, N-Benzyl-N-(4-methoxyphenyl)furan-2-carboxamide] | > 100

Same assay, conditions: human, Exp 2 CC50 Hap1

Row | Compound | CC50 [µM]
41 | COc1ccc(N(Cc2ccccc2)C(=O)c2ccco2)cc1 [Compound 19c, N-Benzyl-N-(4-methoxyphenyl)furan-2-carboxamide] | > 100

Tested on: not listed separately
Assay: in vitro
Conditions: monkey, CC50

Row | Compound | CC50 [µM]
42 | COc1ccc(N(Cc2ccccc2)C(=O)c2ccco2)cc1 [Compound 19c, N-Benzyl-N-(4-methoxyphenyl)furan-2-carboxamide] | > 100

Same assay, conditions: monkey, CC50 BGM Average

Row | Compound | CC50 [µM]
43 | COc1ccc(N(Cc2ccccc2)C(=O)c2ccco2)cc1 [Compound 19c, N-Benzyl-N-(4-methoxyphenyl)furan-2-carboxamide] | > 100

Same assay, conditions: monkey, Exp 1 CC50 BGM

Row | Compound | CC50 [µM]
44 | COc1ccc(N(Cc2ccccc2)C(=O)c2ccco2)cc1 [Compound 19c, N-Benzyl-N-(4-methoxyphenyl)furan-2-carboxamide] | > 100

Same assay, conditions: monkey, Exp 2 CC50 BGM

Row | Compound | CC50 [µM]
45 | COc1ccc(N(Cc2ccccc2)C(=O)c2ccco2)cc1 [Compound 19c, N-Benzyl-N-(4-methoxyphenyl)furan-2-carboxamide] | > 100
